Tested on: methacholine-induced bronchoconstriction in guinea pigs
Test: Inhibition of methacholine-induced bronchoconstriction in anaesthetized, mechanically ventilated guinea pigs
Type: in vivo, guinea pig
Description: Inhibition of Methacholine-induced Bronchoconstriction in Guinea Pigs by ROFLUMILAST in combination with tiotropium-bromide
To assess the inhibitory effect of tiotropium-bromide, ROFLUMILAST, and the combination of both compounds on methacholine-induced bronchoconstriction in anaesthetized, mechanically ventilated guinea pigs.
Male Dunkin Hartley guinea pigs, body weight 350-450 g when performing the experiments.
75 min before methacholine-induced bronchospasm (at −75 min) animals were anaesthetized with urethane i.p. (1.2 g/kg). At −5 min for i.v. injections the right jugular vein and for ventilation the trachea was cannulated. At −45 min NaCl 0.9% or tiotropium-bromide was administered i.v. (1 μg/kg). At −30 min lactose (10 mg/kg) or ROFLUMILAST (4 mg/kg) mixed with lactose was administered intratracheally by a dry powder aerolizer. At −10 min pancuronium-bromide (1.5 mg/kg) was administered i.v. to abolish spontaneous breathing. Animals were mechanically ventilated with 60 breath/min and a tidal volume of 7 ml/kg. Dynamic lung compliance (COM) and airway conductance (CON) were calculated with the help of a computer system from airflow and ventilation pressure signals. At t=0 min methacholine was administered i.v. (60 μg/kg) to induce Bronchoconstriction.
COM and CON were determined up to 120 s after methacholine-induced bronchospasm. AUCs for 0 to 120s were determined. Inhibition was calculated based on the AUC data. Data are shown as mean±SEM. Results were taken to be significant if p<0.05 versus placebo (ANOVA and Dunnett's multiple comparison test)

[1] = male Dunkin Hartley guinea pigs, methacholine 60 μg/kg i.v., tiotropium-bromide 1 μg/kg i.v. at -45 min, ROFLUMILAST 4 mg/kg intratracheally at -30 min, inhibition versus placebo

In the case of C[N+]1(C)[C@@H]2C[C@@H](OC(=O)C(O)(c3cccs3)c3cccs3)C[C@H]1[C@@H]1O[C@@H]12 [tiotropium-bromide], the “Inhibition of methacholine-induced airway conductance (CON) decrease, based on AUC 0-120 s” value [1] is reported as 5.9%, the “Inhibition of methacholine-induced dynamic lung compliance (COM) decrease, based on AUC 0-120 s” value [1] is reported as 12% and the “Effect on methacholine-induced bronchospasm (in words)” value (same doses, significant if p<0.05 versus placebo (ANOVA and Dunnett's test)) is reported as “no significant effect”.
